Measured values: patent US20230150974A1 (Foghorn Therapeutics Inc., priority 2020, published 2023)
Where a name gives a salt, the structure may show the parent alone.

Columns and labels:
HiBiT-BRM = target: T1, HiBiT-BRM (Homo sapiens, UniProt P51531); assay: HiBiT-BRM cell-based degradation assay (Nano-Glo HiBiT Lytic Detection); details: HeLa cells expressing HiBiT-BRM, 24 h; for DC50: read-out: BRM HiBit Degradation IC50
T1 construct: expressed in transfected cells
Outline: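 Luminescence from HiBiT–LgBiT complementation in lysates of a stable HiBiT-BRM HeLa line measured after 24 h compound exposure. Degradation expressed as percent relative to DMSO-treated cells and cells given 2 μM of a known BRM/BRG1 degrader.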

HiBit-BRG1 = target: T2, HiBit-BRG1 (Homo sapiens, UniProt P51532); assay: HiBit-BRG1 cell-based degradation assay (Nano-Glo HiBiT Lytic Detection); details: HeLa cells expressing HiBit-BRG1 and LgBit, 24 h; for DC50: read-out: BRG1 HiBit Degradation IC50; for Dmax: read-out: BRG1 HiBit Degradation Maximum (%)
T2 construct: expressed in transfected cells
Outline: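 Seed 5000 HeLa HiBit-BRG1/LgBit cells per well; treat 24 h; equilibrate 15 min at room temperature; add Nano-Glo HiBiT lytic reagent, shake 10 min, read luminescence. Percent degradation is scaled between DMSO and 2 μM reference degrader wells.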

T1 sequence (P51531 whole entry): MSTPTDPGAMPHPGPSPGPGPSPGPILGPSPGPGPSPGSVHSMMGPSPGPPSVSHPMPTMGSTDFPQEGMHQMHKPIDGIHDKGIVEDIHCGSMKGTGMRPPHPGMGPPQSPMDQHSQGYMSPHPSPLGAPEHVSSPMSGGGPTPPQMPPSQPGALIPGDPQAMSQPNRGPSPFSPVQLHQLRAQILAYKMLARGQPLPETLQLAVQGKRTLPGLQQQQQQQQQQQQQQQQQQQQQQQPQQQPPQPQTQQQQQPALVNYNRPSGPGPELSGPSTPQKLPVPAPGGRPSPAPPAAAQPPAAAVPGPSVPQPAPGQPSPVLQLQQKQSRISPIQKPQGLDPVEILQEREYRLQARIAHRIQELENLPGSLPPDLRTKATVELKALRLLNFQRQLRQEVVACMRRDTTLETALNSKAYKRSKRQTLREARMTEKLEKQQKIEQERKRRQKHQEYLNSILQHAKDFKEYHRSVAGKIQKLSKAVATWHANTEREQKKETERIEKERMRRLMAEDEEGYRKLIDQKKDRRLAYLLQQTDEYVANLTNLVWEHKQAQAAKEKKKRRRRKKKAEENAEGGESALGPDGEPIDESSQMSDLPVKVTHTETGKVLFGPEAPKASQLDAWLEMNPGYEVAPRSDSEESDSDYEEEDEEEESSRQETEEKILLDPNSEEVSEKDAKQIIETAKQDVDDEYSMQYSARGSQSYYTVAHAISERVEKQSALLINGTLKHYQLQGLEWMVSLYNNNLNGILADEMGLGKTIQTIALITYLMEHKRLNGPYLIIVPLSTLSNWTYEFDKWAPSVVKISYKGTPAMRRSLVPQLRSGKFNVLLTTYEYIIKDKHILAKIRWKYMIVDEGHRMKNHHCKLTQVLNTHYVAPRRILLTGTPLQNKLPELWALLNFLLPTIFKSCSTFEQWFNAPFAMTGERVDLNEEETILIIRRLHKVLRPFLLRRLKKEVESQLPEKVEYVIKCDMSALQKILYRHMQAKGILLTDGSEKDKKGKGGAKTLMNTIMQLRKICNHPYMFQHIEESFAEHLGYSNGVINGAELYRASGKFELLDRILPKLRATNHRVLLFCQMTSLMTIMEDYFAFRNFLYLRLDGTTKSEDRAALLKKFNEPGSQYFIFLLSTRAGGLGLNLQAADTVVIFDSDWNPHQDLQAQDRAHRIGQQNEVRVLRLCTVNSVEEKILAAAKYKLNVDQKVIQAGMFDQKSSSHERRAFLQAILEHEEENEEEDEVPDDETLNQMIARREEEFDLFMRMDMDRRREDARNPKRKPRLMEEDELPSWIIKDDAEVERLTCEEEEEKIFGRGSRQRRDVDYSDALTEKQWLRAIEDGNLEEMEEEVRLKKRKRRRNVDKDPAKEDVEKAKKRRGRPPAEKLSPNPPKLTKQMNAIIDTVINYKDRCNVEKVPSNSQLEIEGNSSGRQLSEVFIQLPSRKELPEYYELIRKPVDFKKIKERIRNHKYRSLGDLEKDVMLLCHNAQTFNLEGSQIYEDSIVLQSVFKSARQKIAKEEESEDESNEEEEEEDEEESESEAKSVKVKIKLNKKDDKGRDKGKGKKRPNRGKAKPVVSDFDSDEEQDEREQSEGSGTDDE
T2 sequence (P51532 whole entry): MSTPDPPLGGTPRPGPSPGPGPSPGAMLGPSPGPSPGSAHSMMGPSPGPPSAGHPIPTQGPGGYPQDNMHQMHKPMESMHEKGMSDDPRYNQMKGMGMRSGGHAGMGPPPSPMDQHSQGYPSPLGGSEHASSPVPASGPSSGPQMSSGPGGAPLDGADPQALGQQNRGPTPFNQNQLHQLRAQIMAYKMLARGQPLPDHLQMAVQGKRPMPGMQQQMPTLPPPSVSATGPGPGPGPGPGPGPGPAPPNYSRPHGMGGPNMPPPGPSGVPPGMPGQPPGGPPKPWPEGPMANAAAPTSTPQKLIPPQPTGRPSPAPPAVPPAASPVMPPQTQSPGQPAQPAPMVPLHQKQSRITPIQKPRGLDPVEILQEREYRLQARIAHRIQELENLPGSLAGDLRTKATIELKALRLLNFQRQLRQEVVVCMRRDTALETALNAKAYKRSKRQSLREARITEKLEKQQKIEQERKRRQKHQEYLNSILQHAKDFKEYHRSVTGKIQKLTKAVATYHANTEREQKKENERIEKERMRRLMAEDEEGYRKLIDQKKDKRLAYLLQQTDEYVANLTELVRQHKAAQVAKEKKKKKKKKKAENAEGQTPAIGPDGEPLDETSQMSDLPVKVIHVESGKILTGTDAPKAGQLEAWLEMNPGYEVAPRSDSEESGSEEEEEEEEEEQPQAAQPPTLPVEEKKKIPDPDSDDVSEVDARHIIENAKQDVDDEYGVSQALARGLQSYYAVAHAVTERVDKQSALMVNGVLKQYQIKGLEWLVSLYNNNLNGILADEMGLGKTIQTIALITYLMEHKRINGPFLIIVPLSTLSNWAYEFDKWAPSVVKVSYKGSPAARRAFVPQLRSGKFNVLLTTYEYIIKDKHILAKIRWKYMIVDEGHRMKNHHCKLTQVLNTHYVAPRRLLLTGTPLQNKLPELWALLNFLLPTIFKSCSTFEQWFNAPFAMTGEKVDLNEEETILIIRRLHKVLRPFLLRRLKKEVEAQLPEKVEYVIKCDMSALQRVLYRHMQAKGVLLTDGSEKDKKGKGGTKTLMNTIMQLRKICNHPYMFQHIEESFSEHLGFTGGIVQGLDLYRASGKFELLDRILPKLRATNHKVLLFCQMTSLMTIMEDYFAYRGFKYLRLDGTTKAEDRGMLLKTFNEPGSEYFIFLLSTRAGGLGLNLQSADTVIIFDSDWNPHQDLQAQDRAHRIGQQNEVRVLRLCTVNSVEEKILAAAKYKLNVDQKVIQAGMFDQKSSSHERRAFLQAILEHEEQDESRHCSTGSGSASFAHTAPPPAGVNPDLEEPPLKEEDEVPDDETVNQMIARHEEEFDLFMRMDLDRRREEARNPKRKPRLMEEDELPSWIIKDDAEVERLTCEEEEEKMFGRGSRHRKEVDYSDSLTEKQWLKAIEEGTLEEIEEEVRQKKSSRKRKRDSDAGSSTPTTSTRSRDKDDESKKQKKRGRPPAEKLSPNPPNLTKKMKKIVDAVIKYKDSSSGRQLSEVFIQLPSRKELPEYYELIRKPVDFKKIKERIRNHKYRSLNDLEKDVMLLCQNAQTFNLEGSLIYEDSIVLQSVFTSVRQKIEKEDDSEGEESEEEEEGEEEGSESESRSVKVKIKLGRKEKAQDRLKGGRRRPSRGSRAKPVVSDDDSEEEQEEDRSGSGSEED

| Structure (SMILES) | BRM HiBit Degradation Maximum (%) (HiBiT-BRM) | DC50 (HiBiT-BRM) [nM] | DC50 (HiBit-BRG1) [nM] | Dmax (HiBit-BRG1) [%] |
| --- | --- | --- | --- | --- |
| Cc1ncsc1-c1ccc(CNC(=O)[C@@H]2C[C@@H](O)CN2C(=O)[C@@H](NC(=O)CCCCCCCCC(=O)NCc2ccc(CCNc3cc(-c4ccccc4O)nnc3N)cc2)C(C)(C)C)cc1 [Compound 140, N′-[[4-(2-[[3-amino-6-(2-hydroxyphenyl)pyridazin-4-yl]amino]ethyl)phenyl]methyl]-N-[(2S)-1-[(2S,4R)-4-hydroxy-2-([[4-(4-methyl-1,3-thiazol-5-yl)phenyl]methyl]carbamoyl)pyrrolidin-1-yl]-3,3-dimethyl-1-oxobutan-2-yl]decanediamide] | A (“A” indicates maximum degradation ≥75%) | > 100 | > 1000 | < 50 |
| Nc1nnc(-c2ccccc2O)cc1NCCc1ccc(CNC(=O)CCCCNc2cccc3nnn(C4CCC(=O)NC4=O)c(=O)c23)cc1 (centres unmarked) [Compound 141, N-(4-(2-((3-amino-6-(2-hydroxyphenyl)pyridazin-4-yl)amino)ethyl)benzyl)-5-((3-(2,6-dioxopiperidin-3-yl)-4-oxo-3,4-dihydrobenzo[d][1,2,3]triazin-5-yl)amino)pentanamide] | C (“C” indicates maximum degradation <50%) | > 1000 | > 1000 | < 50 |
| CN(CCc1ccc(CNC(=O)CCCCNc2cccc3nnn(C4CCC(=O)NC4=O)c(=O)c23)cc1)c1cc(-c2ccccc2O)nnc1N (centres unmarked) [Compound 142, N-(4-(2-((3-amino-6-(2-hydroxyphenyl)pyridazin-4-yl)(methyl)amino)ethyl)benzyl)-5-((3-(2,6-dioxopiperidin-3-yl)-4-oxo-3,4-dihydrobenzo[d][1,2,3]triazin-5-yl)amino)pentanamide] | C (“C” indicates maximum degradation <50%) | > 1000 | > 1000 | < 50 |
| Nc1nnc(-c2ccccc2O)cc1OCCc1ccc(CN2CC(N3CCN(c4cccc5c4C(=O)N(C4CCC(=O)NC4=O)C5=O)CC3)C2)cc1 (centres unmarked) [Compound 143, 4-(4-(1-(4-(2-((3-amino-6-(2-hydroxyphenyl)pyridazin-4-yl)oxy)ethyl)benzyl)azetidin-3-yl)piperazin-1-yl)-2-(2,6-dioxopiperidin-3-yl)isoindoline-1,3-dione] | C (“C” indicates maximum degradation <50%) | > 1000 | > 1000 | < 50 |
| CN(CCCCCOc1cccc2c1C(=O)N(C1CCC(=O)NC1=O)C2=O)Cc1ccc(CCN(C)c2cc(-c3ccccc3O)nnc2N)cc1 (centres unmarked) [Compound 145, 4-((5-((4-(2-((3-amino-6-(2-hydroxyphenyl)pyridazin-4-yl)(methyl)amino)ethyl)benzyl)(methyl)amino)pentyl)oxy)-2-(2,6-dioxopiperidin-3-yl)isoindoline-1,3-dione formate] | C (“C” indicates maximum degradation <50%) | > 1000 | > 1000 | < 50 |
| CN(CCc1ccc(CNC(=O)CCCCOc2cccc3c2C(=O)N(C2CCC(=O)NC2=O)C3=O)cc1)c1cc(-c2ccccc2O)nnc1N (centres unmarked) [Compound 146, N-(4-(2-((3-amino-6-(2-hydroxyphenyl)pyridazin-4-yl)(methyl)amino)ethyl)benzyl)-5-((2-(2,6-dioxopiperidin-3-yl)-1,3-dioxoisoindolin-4-yl)oxy)pentanamide] | C (“C” indicates maximum degradation <50%) | > 1000 | > 1000 | < 50 |
| Nc1nnc(-c2ccccc2O)cc1NCCc1ccc(CNC(=O)CCCCOc2cccc3c2C(=O)N(C2CCC(=O)NC2=O)C3=O)cc1 (centres unmarked) [Compound 147, N-(4-(2-((3-amino-6-(2-hydroxyphenyl)pyridazin-4-yl)amino)ethyl)benzyl)-5-((2-(2,6-dioxopiperidin-3-yl)-1,3-dioxoisoindolin-4-yl)oxy)pentanamide] | C (“C” indicates maximum degradation <50%) | > 1000 | > 1000 | < 50 |
| CN(CCCCCOc1ccc2c(c1)C(=O)N(C1CCC(=O)NC1=O)C2=O)Cc1ccc(CCOc2cc(-c3ccccc3O)nnc2N)cc1 (centres unmarked) [Compound 148, 5-((5-((4-(2-((3-amino-6-(2-hydroxyphenyl)pyridazin-4-yl)oxy)ethyl)benzyl)(methyl)amino)pentyl)oxy)-2-(2,6-dioxopiperidin-3-yl)isoindoline-1,3-dioneformate] | C (“C” indicates maximum degradation <50%) | > 1000 | > 1000 | < 50 |
| Nc1nnc(-c2ccccc2O)cc1OCCc1ccc(C(=O)NCCN2CCN(c3cccc4c3C(=O)N(C3CCC(=O)NC3=O)C4=O)CC2)cc1 (centres unmarked) [Compound 149, 4-(2-((3-amino-6-(2-hydroxyphenyl)pyridazin-4-yl)oxy)ethyl)-N-(2-(4-(2-(2,6-dioxopiperidin-3-yl)-1,3-dioxoisoindolin-4-yl)piperazin-1-yl)ethyl)benzamide] | A (“A” indicates maximum degradation ≥75%) | > 100 | > 100 | > 50 |
| CN(CCCCCOc1cccc2c1C(=O)N(C1CCC(=O)NC1=O)C2=O)Cc1ccc(CCNc2cc(-c3ccccc3O)nnc2N)cc1 (centres unmarked) [Compound 150, 4-((5-((4-(2-((3-amino-6-(2-hydroxyphenyl)pyridazin-4-yl)amino)ethyl)benzyl)(methyl)amino)pentyl)oxy)-2-(2,6-dioxopiperidin-3-yl)isoindoline-1,3-dione, formic acid salt] | C (“C” indicates maximum degradation <50%) | > 1000 | > 1000 | < 50 |
| CN(CCCCCNc1ccc2c(c1)C(=O)N(C1CCC(=O)NC1=O)C2=O)Cc1ccc(CCOc2cc(-c3ccccc3O)nnc2N)cc1 (centres unmarked) [Compound 151, 5-[[5-([[4-(2-[[3-amino-6-(2-hydroxyphenyl)pyridazin-4-yl]oxy]ethyl)phenyl]methyl](methyl)amino)pentyl]amino]-2-(2,6-dioxopiperidin-3-yl)isoindole-1,3-dione] | C (“C” indicates maximum degradation <50%) | > 1000 | > 1000 | > 50 |
| Nc1nnc(-c2ccccc2O)cc1OCCc1ccc(CNC(=O)CCCCOc2cccc3c2C(=O)N(C2CCC(=O)NC2=O)C3)cc1 (centres unmarked) [Compound 152, N-(4-(2-((3-amino-6-(2-hydroxyphenyl)pyridazin-4-yl)oxy)ethyl)benzyl)-5-((2-(2,6-dioxopiperidin-3-yl)-3-oxoisoindolin-4-yl)oxy)pentanamide] | A (“A” indicates maximum degradation ≥75%) | > 100 | > 1000 | < 50 |
| Nc1nnc(-c2ccccc2O)cc1OCCc1ccc(CNCCN2CCN(c3cccc4c3C(=O)N(C3CCC(=O)NC3=O)C4=O)CC2=O)cc1 (centres unmarked) [Compound 153, 4-(4-(2-((4-(2-((3-amino-6-(2-hydroxyphenyl)pyridazin-4-yl)oxy)ethyl)benzyl)amino)ethyl)-3-oxopiperazin-1-yl)-2-(2,6-dioxopiperidin-3-yl)isoindoline-1,3-dione] | C (“C” indicates maximum degradation <50%) | > 1000 | > 1000 | < 50 |
| Nc1nnc(-c2ccccc2O)cc1OCCc1ccc(CNC(=O)CCCCNc2ccc3c(c2)C(=O)N(C2CCC(=O)NC2=O)C3=O)cc1 (centres unmarked) [Compound 154, N-(4-(2-((3-amino-6-(2-hydroxyphenyl)pyridazin-4-yl)oxy)ethyl)benzyl)-5-((2-(2,6-dioxopiperidin-3-yl)-1,3-dioxoisoindolin-5-yl)amino)pentanamide] | C (“C” indicates maximum degradation <50%) | > 1000 | > 1000 | < 50 |
| Nc1nnc(-c2ccccc2O)cc1OCCc1ccc(CNC(=O)CCCCNc2cccc3c2C(=O)N(C2CCC(=O)NC2=O)C3)cc1 (centres unmarked) [Compound 155, N-(4-(2-((3-amino-6-(2-hydroxyphenyl)pyridazin-4-yl)oxy)ethyl)benzyl)-5-((2-(2,6-dioxopiperidin-3-yl)-3-oxoisoindolin-4-yl)amino)pentanamide] | A (“A” indicates maximum degradation ≥75%) | > 100 | > 1000 | < 50 |
| CN(CCCCCNc1cccc2c1C(=O)N(C1CCC(=O)NC1=O)C2=O)Cc1ccc(CCOc2cc(-c3ccccc3O)nnc2N)cc1 (centres unmarked) [Compound 156, 4-((5-((4-(2-((3-amino-6-(2-hydroxyphenyl)pyridazin-4-yl)oxy)ethyl)benzyl)(methyl)amino)pentyl)amino)-2-(2,6-dioxopiperidin-3-yl)isoindoline-1,3-dione formate] | B (“B” indicates maximum degradation ≥50%) | > 10 | < 10 | > 50 |
| Nc1nnc(-c2ccccc2O)cc1OCCc1ccc(CNCCN2CC3CC2CN3c2cccc3c2C(=O)N(C2CCC(=O)NC2=O)C3=O)cc1 (centres unmarked) [Compound 158, 4-(5-(2-((4-(2-((3-amino-6-(2-hydroxyphenyl)pyridazin-4-yl)oxy)ethyl)benzyl)amino)ethyl)-2,5-diazabicyclo[2.2.1]heptan-2-yl)-2-(2,6-dioxopiperidin-3-yl)isoindoline-1,3-dione] | B (“B” indicates maximum degradation ≥50%) | > 100 | > 100 | > 50 |
